{"source": "patent US8609712B2", "about": "“Purification of progesterone receptor modulators” (Wyeth LLC, priority 0205, dated 2013)", "key": {"[1]": {"test": "Solubility in DMF", "conditions": "solvent DMF"}, "[2]": {"test": "physchem", "conditions": "organic solvent or mixture"}, "[3]": {"test": "Solubility of the isolated salt in NMP / DMPU", "type": "physicochemical", "description": "6-Bromo-4,4-dimethyl-benzoxazine-2-one (2.59 g) was dissolved in THF (50 mL) at ambient temperature followed by addition of sodium tert-butoxide (0.96 g). The mixture was gently heated until a solution was obtained.\nSimilarly, 6-bromo-4,4-dimethyl-benzoxazine-2-one (2.55 g) was reacted with lithium tert-butoxide (10 mL of 1M solution in THF)."}}}
{"compound": "5′-(5-cyano-1-methyl-1H-pyrrol-2-yl)spiro[cyclohexane-1,3′-[3H]indol]-2′-ylidenecyanamide choline salt", "values": [{"measurement": "solubility in DMF", "setting": "[1]", "result": 11000, "unit": "µg/mL"}]}
{"compound": "Cn1c(C#N)ccc1-c1ccc2c(c1)C1(CCCCC1)C(=NC#N)N2", "note": "[5′-(5-Cyano-1-methyl-1H-pyrrol-2-yl)spiro[cyclohexane-1,3′-[3H]indol]-2′-ylidenecyanamide]", "values": [{"measurement": "solubility", "setting": "[2]", "result": 3000, "unit": "µg/mL"}]}
{"compound": "CC1(C)OC(=O)Nc2ccc(Br)cc21.[Li]", "note": "[6-Bromo-4,4-Dimethyl-Benzoxazine-2-One Lithium Salt]", "values": [{"measurement": "solubility in dimethylpyrimidone (DMPU)", "setting": "[3]; without heating", "result": "soluble"}]}
{"compound": "CC1(C)OC(=O)Nc2ccc(Br)cc21.[Na]", "note": "[6-Bromo-4,4-Dimethyl-Benzoxazine-2-One Sodium Salt]", "values": [{"measurement": "solubility in N-methylpyrrolidone (NMP) and dimethylpyrimidone (DMPU)", "setting": "[3]; solvents heated to about 40 to about 50° C.", "result": "soluble"}]}
